Reference: publication PMC8071163, “Design and Synthesis of 2,6-Disubstituted-4′-Selenoadenosine-5′-N,N-Dimethyluronamide Derivatives as Human A3 Adenosine Receptor Antagonists” (Pharmaceuticals, 2021)

Legend:
hA1AR = molecular target: T1, hA1AR (Homo sapiens, UniProt P30542); assay: Radioligand competition binding assay at hA1AR ([3H]DPCPX)
T1 construct: host or cells: CHO-A1 cells (membranes)
T1 sequence (P30542 1-326): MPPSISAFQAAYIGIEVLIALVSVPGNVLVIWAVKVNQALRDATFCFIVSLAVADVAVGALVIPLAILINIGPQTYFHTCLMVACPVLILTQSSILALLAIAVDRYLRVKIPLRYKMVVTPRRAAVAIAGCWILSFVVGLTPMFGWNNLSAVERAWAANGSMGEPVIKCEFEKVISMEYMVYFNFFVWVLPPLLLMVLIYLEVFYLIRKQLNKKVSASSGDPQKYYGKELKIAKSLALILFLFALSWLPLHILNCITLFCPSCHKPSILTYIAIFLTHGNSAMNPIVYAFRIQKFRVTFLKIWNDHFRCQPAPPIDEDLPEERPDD
Method: Adenosine A1 receptor competition binding experiments were carried out in membranes from CHO-A1 cells (Euroscreen, Gosselies, Belgium). On the day of assay, membranes were defrosted and re-suspended in incubation buffer 20 mM Hepes, 100 mM NaCl, 10 mM MgCl2, 2 UI/mL adenosine deaminase (pH = 7.4). Each reaction well of a GF/C multiscreen plate (Millipore, Madrid, Spain), prepared in duplicate, contained 15 μg of protein, 2 nM [^3H]DPCPX and test compound. Nonspecific binding was determined in the presence of 10 μM (R)-PIA. The reaction mixture was incubated at 25 °C for 60 min, after which samples were filtered and measured in a microplate beta scintillation counter (Microbeta Trilux, Perkin Elmer, Madrid, Spain).

hA2AAR = molecular target: T2, hA2AAR (Homo sapiens, UniProt P29274); assay: Radioligand competition binding assay at hA2AAR ([3H]ZM241385)
T2 construct: expressed in transfected cells; host or cells: HeLa-A2A cells (membranes)
Method: Adenosine A2A receptor competition binding experiments were carried out in membranes from HeLa-A2A cells. On the day of assay, membranes were defrosted and re-suspended in incubation buffer 50 mM Tris-HCl, 1 mM EDTA, 10 mM MgCl2 and 2 UI/mL adenosine deaminase (pH = 7.4). Each reaction well of a GF/C multiscreen plate (Millipore, Madrid, Spain), prepared in duplicate, contained 10 μg of protein, 3 nM [^3H]ZM241385 and test compound. Nonspecific binding was determined in the presence of 50 μM NECA. The reaction mixture was incubated at 25 °C for 30 min, after which samples were filtered and measured in a microplate beta scintillation counter (Microbeta Trilux, Perkin Elmer, Madrid, Spain).

hA2BAR = molecular target: T3, hA2BAR (Homo sapiens, UniProt P29275); assay: Radioligand competition binding assay at hA2BAR ([3H]DPCPX)
T3 construct: host or cells: HEK-293-A2B cells (membranes)
T3 sequence (P29275 1-332): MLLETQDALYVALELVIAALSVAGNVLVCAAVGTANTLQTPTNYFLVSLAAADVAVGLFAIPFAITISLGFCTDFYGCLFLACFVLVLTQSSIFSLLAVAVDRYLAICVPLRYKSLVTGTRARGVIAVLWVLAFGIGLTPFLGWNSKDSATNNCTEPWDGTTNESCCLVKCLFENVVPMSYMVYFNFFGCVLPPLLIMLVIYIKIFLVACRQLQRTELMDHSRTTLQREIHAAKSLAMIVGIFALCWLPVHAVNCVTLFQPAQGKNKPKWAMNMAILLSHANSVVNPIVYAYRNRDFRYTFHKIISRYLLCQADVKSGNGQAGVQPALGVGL
Method: Adenosine A2B receptor competition binding experiments were carried out in membranes from HEK-293-A2B cells (Euroscreen, Gosselies, Belgium) prepared following the provider’s protocol. On the day of assay, membranes were defrosted and re-suspended in incubation buffer 50 mM Tris-HCl, 1 mM EDTA, 10 mM MgCl2, 0.1 mM benzamidine, 10 μg/mL bacitracine and 2 UI/mL adenosine deaminase (pH = 6.5). Each reaction well prepared in duplicate contained 18 μg of protein, 35 nM [^3H]DPCPX and test compound. Nonspecific binding was determined in the presence of 400 μM NECA. The reaction mixture was incubated at 25 °C for 30 min, after which samples were filtered through a multiscreen GF/C microplate and measured in a microplate beta scintillation counter (Microbeta Trilux, Perkin Elmer, Madrid, Spain).

hA3AR [1] = molecular target: T4, hA3AR (Homo sapiens, UniProt P0DMS8); assay: Radioligand competition binding assay at hA3AR ([3H]NECA); design: expressed in transfected cells; host or cells: HeLa-A3 cell line (membranes prepared in laboratory); conditions: 0.5 nM [3H]NECA; mean ± SEM (n = 2); read-out: Affinity, Ki, hA3AR
T4 sequence (P0DMS8 1-318): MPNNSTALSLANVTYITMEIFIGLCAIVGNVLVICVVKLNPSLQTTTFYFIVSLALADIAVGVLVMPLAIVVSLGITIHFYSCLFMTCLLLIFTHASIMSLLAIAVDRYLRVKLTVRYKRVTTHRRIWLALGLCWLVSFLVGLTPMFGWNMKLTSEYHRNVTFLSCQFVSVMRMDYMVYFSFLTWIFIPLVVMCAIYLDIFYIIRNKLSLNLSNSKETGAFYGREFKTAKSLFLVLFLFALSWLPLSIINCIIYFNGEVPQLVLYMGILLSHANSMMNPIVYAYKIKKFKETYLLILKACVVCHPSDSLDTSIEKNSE

hA3AR [2] = molecular target: T4, hA3AR; assay: Cyclic AMP accumulation functional assay at hA3AR expressed in CHO cells; assay type: cell-based; design: expressed in transfected cells
Method: Human adenosine A3 receptor functional experiments were carried out in CHO-A3#18 cell line. The day before the assay, the cells were seeded on the 96-well culture plate (Falcon 353072, Corning, Glendale, AZ, USA). The cells are washed with wash buffer (Dulbecco’s modified eagle’s medium nutrient mixture F-12 ham (Sigma D8062), 25 mM Hepes; pH = 7.4). Wash buffer is replaced by incubation buffer (Dulbecco’s modified eagle’s medium nutrient mixture F-12 ham (Sigma D8062), 25 mM Hepes, 30 μM Rolipram (Sigma R6520); pH = 7.4). Test compounds and MRS1220 as reference compound (Sigma M228) are added and the cells incubated at 37 °C for 15 min. After, 0.1 μM of 5′-N-ethylcarboxamido-adenosine (NECA) (Sigma E2387) is added and the cells incubated at 37 °C for 10 min. Forskolin (Sigma F3917, Sigma-Aldrich, St. Louis, MO, USA) is added and incubated at 37 °C for 5 min. After incubation, the amount of cAMP is determined using a cAMP Biotrak Enzymeimmunoassay (EIA) System Kit (GE Healthcare RPN225, GE Healthcare, Chicago, IL, USA).

T2 sequence (P29274 whole entry): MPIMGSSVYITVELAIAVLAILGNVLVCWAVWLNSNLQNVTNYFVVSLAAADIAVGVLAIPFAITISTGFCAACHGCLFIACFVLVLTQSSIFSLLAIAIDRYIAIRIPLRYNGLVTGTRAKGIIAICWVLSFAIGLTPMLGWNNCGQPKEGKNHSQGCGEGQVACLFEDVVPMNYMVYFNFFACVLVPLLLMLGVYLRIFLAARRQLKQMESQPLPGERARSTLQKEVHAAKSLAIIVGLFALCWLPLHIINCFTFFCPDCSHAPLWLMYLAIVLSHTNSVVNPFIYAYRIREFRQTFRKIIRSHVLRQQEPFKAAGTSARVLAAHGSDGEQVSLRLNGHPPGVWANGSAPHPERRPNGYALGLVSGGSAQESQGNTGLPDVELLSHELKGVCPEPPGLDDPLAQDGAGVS

| SMILES | inhibition at 10 µM (hA1AR) [%] | inhibition at 10 µM (hA2AAR) [%] | inhibition at 10 µM (hA2BAR) [%] | Ki (hA3AR [1]) [nM] | Behaviour in cAMP functional assay at hA3AR (hA3AR [2]) | Kb (hA3AR [2]; inhibition of NECA-induced cAMP accumulation) [nM] |
| --- | --- | --- | --- | --- | --- | --- |
| CN(C)C(=O)[C@H]1[Se][C@@H](n2cnc3c(N)ncnc32)[C@H](O)[C@@H]1O [Compound 9a, (2S,3S,4R,5R)-5-(6-amino-9H-purin-9-yl)-3,4-dihydroxy-N,N-dimethyltetra hydroselenophene-2-carboxamide] | 16 | 22 | 17 | 3710 ± 600 |  |  |
| CNc1ncnc2c1ncn2[C@@H]1[Se][C@H](C(=O)N(C)C)[C@@H](O)[C@H]1O [Compound 9b, (2S,3S,4R,5R)-3,4-dihydroxy-N,N-dimethyl-5-(6-(methylamino)-9H-purin-9-yl)tetrahydroselenophene-2-carboxamide] | 9 | 3 | 9 | 609 ± 47 |  |  |
| CN(C)C(=O)[C@H]1[Se][C@@H](n2cnc3c(NCc4cccc(F)c4)ncnc32)[C@H](O)[C@@H]1O [Compound 9c, (2S,3S,4R,5R)-5-(6-((3-fluorobenzyl)amino)-9H-purin-9-yl)-3,4-dihydroxy-N,N-dimethyltetrahydroselenophene-2-carboxamide] | 13 | 12 | 19 | 2020 ± 170 |  |  |
| CN(C)C(=O)[C@H]1[Se][C@@H](n2cnc3c(NCc4cccc(Cl)c4)ncnc32)[C@H](O)[C@@H]1O [Compound 9d, (2S,3S,4R,5R)-5-(6-((3-chlorobenzyl)amino)-9H-purin-9-yl)-3,4-dihydroxy-N,N-dimethyltetrahydroselenophene-2-carboxamide] | 23 | 4 | 15 | 1190 ± 160 |  |  |
| CN(C)C(=O)[C@H]1[Se][C@@H](n2cnc3c(NCc4cccc(Br)c4)ncnc32)[C@H](O)[C@@H]1O [Compound 9e, (2S,3S,4R,5R)-5-(6-((3-bromobenzyl)amino)-9H-purin-9-yl)-3,4-dihydroxy-N,N-dimethyltetrahydroselenophene-2-carboxamide] | 43 | 37 |  | 36.3 ± 12.7 |  |  |
| CN(C)C(=O)[C@H]1[Se][C@@H](n2cnc3c(NCc4cccc(I)c4)ncnc32)[C@H](O)[C@@H]1O [Compound 9f, (2S,3S,4R,5R)-3,4-dihydroxy-5-(6-((3-iodobenzyl)amino)-9H-purin-9-yl)-N,N-dimethyltetrahydroselenophene-2-carboxamide] | 36 | 32 |  | 22.7 ± 8.9 |  |  |
| CN(C)C(=O)[C@H]1[Se][C@@H](n2cnc3c(N)nc(Cl)nc32)[C@H](O)[C@@H]1O [Compound 9g, (2S,3S,4R,5R)-5-(2-chloro-6-amino-9H-purin-9-yl)-3,4-dihydroxy-N,N-dimethyltetrahydroselenophene-2-carboxamide] | 9 | 3 | 25 | 3250 ± 370 |  |  |
| CNc1nc(Cl)nc2c1ncn2[C@@H]1[Se][C@H](C(=O)N(C)C)[C@@H](O)[C@H]1O [Compound 9h, (2S,3S,4R,5R)-5-(2-chloro-6-(methylamino)-9H-purin-9-yl)-3,4-dihydroxy-N,N-dimethyltetrahydroselenophene-2-carboxamide] | 58 | 5 | 19 | 1060 ± 140 |  |  |
| CN(C)C(=O)[C@H]1[Se][C@@H](n2cnc3c(NCc4cccc(F)c4)nc(Cl)nc32)[C@H](O)[C@@H]1O [Compound 9i, (2S,3S,4R,5R)-5-(2-chloro-6-((3-fluorobenzyl)amino)-9H-purin-9-yl)-3,4-dihydroxy-N,N-dimethyltetrahydroselenophene-2-carboxamide] | 34 | 9 | 14 | 238 ± 37 |  |  |
| CN(C)C(=O)[C@H]1[Se][C@@H](n2cnc3c(NCc4cccc(Cl)c4)nc(Cl)nc32)[C@H](O)[C@@H]1O [Compound 9j, (2S,3S,4R,5R)-5-(2-chloro-6-((3-chlorobenzyl)amino)-9H-purin-9-yl)-3,4-dihydroxy-N,N-dimethyltetrahydroselenophene-2-carboxamide] | 63 | 13 | 27 | 195 ± 40 |  |  |
| CN(C)C(=O)[C@H]1[Se][C@@H](n2cnc3c(NCc4cccc(Br)c4)nc(Cl)nc32)[C@H](O)[C@@H]1O [Compound 9k, (2S,3S,4R,5R)-5-(6-((3-bromobenzyl)amino)-2-chloro-9H-purin-9-yl)-3,4-dihydroxy-N,N-dimethyltetrahydroselenophene-2-carboxamide] | 58 | 10 | 27 | 180 ± 12 |  |  |
| CN(C)C(=O)[C@H]1[Se][C@@H](n2cnc3c(NCc4cccc(I)c4)nc(Cl)nc32)[C@H](O)[C@@H]1O [Compound 9l, (2S,3S,4R,5R)-5-(2-chloro-6-((3-iodobenzyl)amino)-9H-purin-9-yl)-3,4-dihydroxy-N,N-dimethyltetrahydroselenophene-2-carboxamide] | 68 | 10 | 23 | 253 ± 29 | antagonist activity | 114 |
